One assay deals with advanced malignancies. The settings on record: phase I, cited from earlier work.
Assay [1] relates to previously treated patients with SCLC. The settings on record: phase II, ref Stephenson et al, 2014; cited from earlier work.
The subject of assay [2] is proliferating cell nuclear antigen (PCNA). As to the kind of experiment: PCNA RNA expression in whole blood. The assay is classed as in vivo, human. The settings on record: for Difference of mean ΔCT values from baseline (ΔΔCT), PCNA: 6 h post dose, whole blood.
The subject of assay [3] is patients with advanced malignancies. As to the kind of experiment: Tumour response. Type of assay: in vivo, human.
Assay [4] has the same test system. As to the kind of experiment: Tumour response. The assay is classed as in vivo, human. Conditions: 10 patients.
For assay [5], the system named is cell-cycle CDKs 1, 2, 4, and 6 and transcriptional CDKs 7 and 9. Conditions: cited from earlier work.
A further assay deals with human cancer cell lines. Conditions: large panel of human cancer cell lines; ref Siemeister et al, 2012; cited from earlier work.
The next assay deals with xenograft mouse models. The settings on record: ref Siemeister et al, 2012; cited from earlier work.
[6] abbreviates: 104 patients with solid tumours.
The mark [7] stands for this setting: seven patients, lymphoid malignancy dose-escalation cohorts.

Here are results for 3 molecules from article PMC5518866 (British Journal of Cancer, 2017).

Where two headings read alike, the source gives them in different places.

Consider `CCc1cnn2c(NCc3ccc[n+]([O-])c3)cc(N3CCCC[C@H]3CCO)nc12` [dinaciclib], for which, in the assay on advanced malignancies (ref Nemunaitis et al, 2013), the “Disease control rate (DCR)” value is 20.8%. Further, in assay [1], the Objective responses result is recorded as “no objective responses”.

As to `CC(=O)c1c(C)c2cnc(Nc3ccc(N4CCNCC4)cn3)nc2n(C2CCCC2)c1=O` [palbociclib], the “Disease control rate (DCR)” value in the assay on advanced malignancies (ref Flaherty et al, 2012) is reported as 27%.

For roniciclib, the “PCNA expression in peripheral whole blood (fold-change from baseline)” value in assay [2] (6 h post dose on cycle 1, day 1, ovarian cancer and SCLC patients) is listed as “significantly inhibited expression of PCNA”. In assay [2] (Ovarian cancer cohort, Cycle 1, day 1), the “Difference of mean ΔCT values from baseline (ΔΔCT), PCNA” value (shortened to “Difference of mean ΔCT values”) turned out to be 1.720. In addition, the “Difference of mean ΔCT values” value in assay [2] (Ovarian cancer cohort, Cycle 1, day 10) is 0.521. In assay [2] (SCLC cohort, Cycle 1, day 1), the “Difference of mean ΔCT values” value is given as 1.006. Also, the “Difference of mean ΔCT values” value in assay [2] (SCLC cohort, Cycle 1, day 10) is reported as 0.224. Also, the “Disease control rate (DCR)” value in assay [3] (5 mg BID, solid tumours bearing a CDK-related tumour mutation (n=6)) was found to be 33.3%. Moreover, in assay [3] (setting [6]), the Complete response result is “none”, the “Disease control rate (DCR)” value was found to be 32.7%, the Partial response is listed as 1.0% and the Radiological progressive disease was 38.5%. Besides, in assay [3] (setting [6]), the Response rate is listed as 1.0% and the Stable disease stood at 31.7%. Moreover, the “Disease control rate (DCR)” value in assay [3] (lymphoid malignancy dose-escalation cohorts) was 42.9%. In assay [3] (setting [7]), the “Complete or partial response” value is reported as “none” and the “Stable disease, patients” value is given as “three”. In addition, in assay [4], the “Complete or partial response” value is “No patients” and the “Stable disease, patients” value is on record as “five”. In assay [5], the “Activity against CDKs” value is on record as “low nanomolar activity”. Also, the Anti-proliferative activity result in the assay on human cancer cell lines is reported as “broad-spectrum anti-proliferative activity”. In the assay with xenograft mouse models, the Tumour growth inhibition entry is “strongly inhibited tumour growth in a dose-dependent manner”.
